# Measured values: patent publication US6777426B2, “Imidazole and imidazoline derivatives and uses thereof” (Synaptic Pharmaceutical Corporation, priority 1997, dated 2004)
# Counter-ions that a name gives are not always drawn. Like-named read-outs stand apart in the source and are kept apart here.
# How the values were obtained:
# [1] = molecular target: T1, human α2a adrenergic receptor (Homo sapiens, UniProt P08913); assay: α2 agonist activity: inhibition of forskolin-stimulated cAMP synthesis, α2a cells; assay type: cell-based; details: for α2a IA (Intrinsic Activity): inhibition of forskolin-stimulated cAMP, cloned human α2a
# T1 construct: expressed in transfected cells; host or cells: LM(tk−) cells (L-α2A, ATCC CRL-11180), vector pCEXV-3
# T1 sequence (P08913 1-465): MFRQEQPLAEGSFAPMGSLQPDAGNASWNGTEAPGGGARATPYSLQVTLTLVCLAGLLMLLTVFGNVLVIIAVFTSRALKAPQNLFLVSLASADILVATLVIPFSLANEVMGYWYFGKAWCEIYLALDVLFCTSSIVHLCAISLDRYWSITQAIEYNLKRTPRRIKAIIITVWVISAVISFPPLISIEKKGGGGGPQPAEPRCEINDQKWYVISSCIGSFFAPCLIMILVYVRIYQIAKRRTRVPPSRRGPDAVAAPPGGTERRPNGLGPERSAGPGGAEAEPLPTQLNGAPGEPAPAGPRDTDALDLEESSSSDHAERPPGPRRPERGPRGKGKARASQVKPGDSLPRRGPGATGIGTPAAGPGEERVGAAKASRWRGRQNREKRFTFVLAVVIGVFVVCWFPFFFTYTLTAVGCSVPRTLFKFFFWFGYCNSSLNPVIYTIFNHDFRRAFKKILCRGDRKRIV
# Procedure: (§1) Binding and functional assays were performed using stably transfected cells expressing human α adrenergic receptors. Equilibrium competition binding assays were performed with membrane preparations from cultured LM(tk−) cells stably transfected with the cloned human adrenoceptor subtypes except for a21, which was expressed In Y-1 cells, using [^3H]prazosin for α1 receptors and [^3H]rauwolscine for […].
# (§2) These cell lines were prepared by transfecting cloned cDNA or cloned genomic DNA or constructs containing both genomic DNA and cDNA encoding the human a adrenergic receptors as described below.
# (§3) The agonist activity (expressed as pEC50) was measured as a function of the ability to inhibit the forskolin-stimulated synthesis of cyclic adenosine monophosphate (cAMP). The stably transfected cells were incubated in Ham's F10 with 5 mM theophylline, 10 mM HEPES, 17 mM pargyline, and/or appropriate concentrations of forskolin for 20 min. at 37° C. in 5% CO2. The tested compounds were then added to a final concentration of 0.001 nM to 1 mM and incubated for an additional 15 min. at 37° C. in 5% CO2. The medium was aspirated and the reaction was stopped by the addition of 100 mM HCl. […] The plates were stored at 4° C. for 15 min. and assayed to determine the linear concentration of cAMP. The appropriate dilution was interpolated from the standard curve of cold cAMP. The assessment of cAMP formation was determined by radioimmunoassay (cAMP radioimmunoassay kit; Advanced magnetics, Cambridge, Mass.). Radioactivity was quantified using a Packard COBRA Auto Gamma counter equipped with data reduction software.
# [2] = molecular target: T2, human α2c adrenergic receptor (Homo sapiens, UniProt P18825); assay: α2 agonist activity: inhibition of forskolin-stimulated cAMP synthesis, α2c cells; assay type: cell-based
# T2 construct: The entire coding region of α2c (1383 bp), including 2 bp of 5′ UT and 400 bp of 3′ UT; expressed in transfected cells; host or cells: LM(tk−) cells (L-α2c, ATCC CRL-11181), vector pCEXV-3
# T2 sequence (P18825 1-462): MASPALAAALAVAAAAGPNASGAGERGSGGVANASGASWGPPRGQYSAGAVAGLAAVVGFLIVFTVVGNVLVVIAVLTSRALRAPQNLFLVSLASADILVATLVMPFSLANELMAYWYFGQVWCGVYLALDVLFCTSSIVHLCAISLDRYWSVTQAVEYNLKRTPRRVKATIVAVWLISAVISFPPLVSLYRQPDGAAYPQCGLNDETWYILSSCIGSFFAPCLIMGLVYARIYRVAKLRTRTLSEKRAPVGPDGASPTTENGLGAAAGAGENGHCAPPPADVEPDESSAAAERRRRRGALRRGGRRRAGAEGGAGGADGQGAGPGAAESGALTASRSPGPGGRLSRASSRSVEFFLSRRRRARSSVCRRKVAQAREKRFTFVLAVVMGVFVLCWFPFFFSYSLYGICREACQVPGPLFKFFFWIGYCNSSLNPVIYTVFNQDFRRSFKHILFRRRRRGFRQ
# Procedure: as §1, §2, §3
# [3] = molecular target: T3, human α2b adrenergic receptor (Homo sapiens, UniProt P18089); assay: Equilibrium competition binding, [3H]rauwolscine, cloned human α2b
# T3 construct: expressed in transfected cells; host or cells: stably transfected cells, vector pcEXV-3; deposited line L-NGC-α2B (ATCC CRL-10275)
# T3 sequence (P18089 1-450): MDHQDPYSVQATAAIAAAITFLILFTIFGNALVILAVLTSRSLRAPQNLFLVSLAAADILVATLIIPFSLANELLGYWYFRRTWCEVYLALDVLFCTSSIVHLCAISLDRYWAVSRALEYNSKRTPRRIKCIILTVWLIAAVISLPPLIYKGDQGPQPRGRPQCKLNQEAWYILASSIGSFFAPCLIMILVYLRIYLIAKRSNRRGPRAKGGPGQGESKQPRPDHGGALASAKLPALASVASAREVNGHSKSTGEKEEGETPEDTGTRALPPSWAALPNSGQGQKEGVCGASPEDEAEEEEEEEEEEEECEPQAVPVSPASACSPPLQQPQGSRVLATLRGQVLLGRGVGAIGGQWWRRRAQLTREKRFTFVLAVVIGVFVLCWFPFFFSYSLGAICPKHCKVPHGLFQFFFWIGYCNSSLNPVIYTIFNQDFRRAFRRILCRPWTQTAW
# Procedure: as §1, §2
# Stable cell lines were selected as described above.
# (§4) The stable cell lines described above were scraped from culture flasks into 5 mL of 5 mM Tris-HCl, […], pH 7.5, and lysed by sonication. The cell lysates were centrifuged at 1,000 rpm for 5 min. at 4° C., and the supernatant was centrifuged at 30,000×g for 20 min. at 4° C. The pellet was suspended in 50 mM Tris-HCl, 1 mM MgCl2, and 0.1% ascorbic acid at pH 7.5. Binding of the α2 antagonist [^3H]rauwolscine (0.5 nM) or the α1 antagonist [^3H]prazosin (0.5 nM) to membrane preparations of LM(tk−) cells was done in a final volume of 0.25 mL and incubated at 37° C. for 20 min. Nonspecific binding was determined in the presence of […]. The reaction was stopped by filtration through GF/B filters using a cell harvester.
# [4] = molecular target: T1, human α2a adrenergic receptor; assay: Equilibrium competition binding, [3H]rauwolscine, cloned human α2a
# Procedure: as §1, §2
# The insert housing this coding region was a 2.5 kb Kpnl/HindIII human placenta genomic fragment which was end-blunted by either T4 polymerase or Klenow fragment of DNA polymerase. Stable cell lines were obtained by to-transfection with the plasmid pGCcos3neo (plasmid containing the α2a receptor gene) and the plasmid pGCcos3neo (plasmid containing the aminoglycoside transferase gene) into LM(tk−), CHO, and NIH3T3 cells, using calcium phosphate technique. The cells were grown in a controlled environment (37° C., 5% CO2) as monolayers in Dulbecco's modified Eagle's Medium (GIBCO, Grand Island, N.Y.) containing 25 mM glucose and supplemented with 10% bovine calf serum, 100 units/mL penicillin g, and […] streptomycin sulfate.
# as §4
# [5] = molecular target: T3, human α2b adrenergic receptor; assay: α2 agonist activity: inhibition of forskolin-stimulated cAMP synthesis, α2b cells; assay type: cell-based
# Procedure: as §1, §2, §3
# [6] = molecular target: T2, human α2c adrenergic receptor; assay: Equilibrium competition binding, [3H]rauwolscine, cloned human α2c
# Procedure: as §1, §2
# The insert housing this coding region was a 1.8 kb Ncol/EcoR1 human spleen genomic fragment which was end-blunted by either T4 polymerase or Klenow fragment of DNA polymerase. Stable cell lines were selected as described above.
# as §4
# [7] = inhibition of forskolin-stimulated cAMP, cloned human α2c
# [8] = inhibition of forskolin-stimulated cAMP, cloned human α2b
# [9] = inhibition of forskolin-stimulated cAMP, cloned human α2c, read-out: α2c pEC50 (converted)
# [10] = cloned human α2b, membrane preparations, [3H]rauwolscine, read-out: α2b pKi (converted)
# [11] = cloned human α2a, membrane preparations, [3H]rauwolscine, read-out: α2a pKi (converted)
# [12] = inhibition of forskolin-stimulated cAMP, cloned human α2b, read-out: α2b pEC50 (converted)
# [13] = cloned human α2c, membrane preparations, [3H]rauwolscine, read-out: α2c pKi (converted)
structure (smiles),measurement,setting,value
Br.Brc1cc2c(cc1NC1=NCCN1)CCC2,melting point,,220 to 221 °C
Brc1cc2c(c(Br)c1NC1=NCCN1)CCC2,melting point,,163 to 164 °C
C1=NC(Cc2ccnc3ccccc23)CN1.O=C(O)/C=C/C(=O)O (centres unmarked),melting point,,180 to 182 °C
O=[N+]([O-])c1cc2c(cc1NC1=NCCN1)CCC2 (as salt: fumarate),melting point,,213 to 214 °C (dec.)
CC1CCc2ncc(NC3=NCCN3)cc2C1 (centres unmarked) (as salt: fumarate),melting point,,192 to 195 °C (dec.)
CC1CCCc2cc(NC3=NCCN3)cnc21 (centres unmarked) (as salt: fumarate),melting point,,155 to 160 °C (dec.)
CC1(C)CCCc2cc(NC3=NCCN3)cnc21 (as salt: fumarate),melting point,,185 to 186 °C (dec.)
c1nc2c(cc1NC1=NCCN1)CCCC2 (as salt: fumarate),melting point,,201 to 203 °C
c1nc2c(cc1NC1=NCCN1)COCC2 (as salt: fumarate),melting point,,201 to 202.5 °C
OC1CCCc2ccc(NC3=NCCN3)cc21 (centres unmarked) (as salt: fumarate),melting point,,180 to 182 °C (dec.)
CC1CCCc2ccc(NC3=NCCN3)cc21 (centres unmarked) (as salt: fumarate),melting point,,185 to 187 °C (dec.)
"O=C1CCCc2ccc(NC3=NCCN3)cc21 (as salt: fumarate) [Example 4, 2-(1,2,3,4-Tetrahydro-1-oxo-naphth-7-yl)amino-2-imidazoline]",melting point,,198 to 201 °C (dec.)
"O=C1CCCc2ccc(NC3=NCCN3)c(Br)c21 (as salt: fumarate) [Example 5, 2-(8-Bromo-1,2,3,4-Tetrahydro-1-oxo-naphth-7-yl)amino-2-imidazoline]",melting point,,204 to 207 °C (dec.)
"CON=C1CCCc2ccc(NC3=NCCN3)cc21 (as salt: fumarate) [Example 8, 2-(1,2,3,4-Tetrahydro-1-methoxyimino-naphth-7-yl)amino-2-imidazoline]",melting point,,201 to 202 °C (dec.)
"CC(=O)N1CCc2cc(NC3=NCCN3)ccc21 (as salt: fumarate) [Example 9, 2-(1-Acetyl-indolin-5-yl)amino-2-imidazoline]",melting point,,200 to 203 °C (dec.)
"c1nc2c(cc1NC1=NCCN1)CCC2 (as salt: fumarate) [Example 21, 2-(2,3-Cyclopentenopyrid-5-yl)amino-2-imidazoline]",melting point,,182 to 183.5 °C
"c1nc2c(cc1NC1=NCCN1)CSCC2 (as salt: fumarate) [Example 25, 2-(5,6,7,8-tetrahydro-6-thia-quinolin-3-yl)amino-2-imidazoline]",melting point,,199.5 to 200.5 °C
"Cc1nc2c(c(C)c1NC1=NCCN1)CCC2 (as salt: fumarate) [Example 30, 2-(5,6-Cyclopenteno-2,4-dimethyl-pyrid-3-yl)amino-2-imidazoline]",melting point,,220 to 221 °C
"c1nc2c(cc1NC1=NCCN1)CCC2 [Example 21, 2-(2,3-Cyclopentenopyrid-5-yl)amino-2-imidazoline]",EC50,[1],389 nM
same,α2a IA (Intrinsic Activity),[1],(0.58)
same,EC50,[2],16.2 nM
same,α2c IA (Intrinsic Activity),[2]; [7],(1.00)
same,Ki,[3],166 nM
same,Ki,[4],50.1 nM
same,EC50,[5],1950 nM
same,α2b IA (Intrinsic Activity),[5]; [8],(0.55)
same,Ki,[6],457 nM
"Brc1nc2c(c(Br)c1NC1=NCCN1)CCC2 [Example 29, 2-(2,4-Dibromo-5,6-cyclopentenopyrid-3-yl)amino-2-imidazoline]",EC50,[1],15.8 nM
same,α2a IA (Intrinsic Activity),[1],(1.00)
same,α2c IA (Intrinsic Activity),[2]; [7],(1.00)
same,EC50,[2]; [9],13.8 nM
same,Ki,[3]; [10],51.3 nM
same,Ki,[4]; [11],14.8 nM
same,α2b IA (Intrinsic Activity),[5]; [8],(0.40)
same,EC50,[5]; [12],91.2 nM
same,Ki,[6]; [13],251 nM
"Cc1nc2c(c(C)c1NC1=NCCN1)CCC2 [Example 30, 2-(5,6-Cyclopenteno-2,4-dimethyl-pyrid-3-yl)amino-2-imidazoline]",EC50,[1],2.95 nM
same,α2a IA (Intrinsic Activity),[1],(1.00)
same,α2c IA (Intrinsic Activity),[2]; [7],(1.00)
same,EC50,[2]; [9],6.31 nM
same,Ki,[3]; [10],36.3 nM
same,Ki,[4]; [11],17.8 nM
same,α2b IA (Intrinsic Activity),[5]; [8],(0.43)
same,EC50,[5]; [12],148 nM
same,Ki,[6]; [13],309 nM
"Cc1cccc(C(C)c2cnc[nH]2)c1C (centres unmarked) [Medetomidine, reference compound]",α2a IA (Intrinsic Activity),[1],(1.00)
same,α2c IA (Intrinsic Activity),[2]; [7],(1.00)
same,EC50,[2]; [9],1.48 nM
same,Ki,[6]; [13],5.37 nM
"Brc1c(NC2=NCCN2)ccc2nccnc12 [UK-14, 304, reference compound]",α2c IA (Intrinsic Activity),[2]; [7],(1.00)
